{"source": "patent US6310043A", "about": "(priority 1999, dated 2001)", "key": {"[1]": {"target": "SLT-1 (Verotoxin I) (Bacteriophage H30, UniProt P69178)", "sequence (P69178 whole entry, looked up)": "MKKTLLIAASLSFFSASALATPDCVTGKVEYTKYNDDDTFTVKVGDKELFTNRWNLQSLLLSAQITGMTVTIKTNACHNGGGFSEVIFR", "experiment": "biochemical", "format": "binding, E. coli"}, "[2]": {"test_system": "Vero cells exposed to SLT", "format": "cell-based, African Green Monkey"}, "[3]": {"target": "SLT-1 (VT-1) (Bacteriophage H30, UniProt P69178)", "sequence (P69178 whole entry, looked up)": "as above", "format": "binding, E. coli"}, "[4]": {"target": "SLT-2 (VT-2) (Escherichia phage 933W, UniProt P09386)", "sequence (P09386 whole entry, looked up)": "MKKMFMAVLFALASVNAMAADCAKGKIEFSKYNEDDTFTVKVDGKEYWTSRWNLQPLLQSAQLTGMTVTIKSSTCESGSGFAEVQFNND", "format": "binding, E. coli"}, "[5]": {"target": "SLT-1 (Bacteriophage H30, UniProt P69178)", "sequence (P69178 21-89 limits assumed)": "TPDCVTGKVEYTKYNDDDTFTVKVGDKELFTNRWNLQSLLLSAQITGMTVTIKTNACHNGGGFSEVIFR", "experiment": "biochemical", "format": "binding, E. coli"}}, "note": "Where two headings read alike, the source gives them in different places.", "data": [{"smiles": "CO[C@@H]1O[C@H](CO)[C@@H](O[C@@H]2O[C@H](CO)[C@H](O[C@H]3O[C@H](CO)[C@H](O)[C@H](O)[C@H]3O)[C@H](O)[C@H]2OCCOC(=O)NCC(O)CNC(=O)OCCO[C@H]2[C@H](O[C@H]3[C@H](O)[C@@H](O)[C@H](OC)O[C@@H]3CO)O[C@H](CO)[C@H](O[C@H]3O[C@H](CO)[C@H](O)[C@H](O)[C@H]3O)[C@@H]2O)[C@H](O)[C@H]1O", "note": "[Bridged P^k -trisaccharide methyl glycoside dimer]", "values": [{"measurement": "IC50", "setting": "[1]", "value": 55, "unit": "µM"}, {"measurement": "activity relative to the Pk trisaccharide alone", "setting": "[1]; ELISA, VT-I", "value": 38, "unit": "times"}, {"measurement": "inhibition of cell lysis caused by the SLT", "setting": "[2]", "value": "more effective than a Pk-BSA conjugate at inhibiting cell lysis"}]}, {"smiles": "CO[C@@H]1O[C@H](CO)[C@@H](O[C@@H]2O[C@H](CO)[C@H](O[C@H]3O[C@H](CO)[C@H](O)[C@H](O)[C@H]3O)[C@H](O)[C@H]2OCCOC(=O)NCC(CNC(=O)OCCO[C@H]2[C@H](O[C@H]3[C@H](O)[C@@H](O)[C@H](OC)O[C@@H]3CO)O[C@H](CO)[C@H](O[C@H]3O[C@H](CO)[C@H](O)[C@H](O)[C@H]3O)[C@@H]2O)OC(=O)NCCCCCCCCNc2c(NCCNC(=O)CSCCCO[C@@H]3[C@@H](OCCCSCC(=O)NCCNc4c(NCCCCCCCCNC(=O)OC(CNC(=O)OCCO[C@H]5[C@H](O[C@H]6[C@H](O)[C@@H](O)[C@H](OC)O[C@@H]6CO)O[C@H](CO)[C@H](O[C@H]6O[C@H](CO)[C@H](O)[C@H](O)[C@H]6O)[C@@H]5O)CNC(=O)OCCO[C@H]5[C@H](O[C@H]6[C@H](O)[C@@H](O)[C@H](OC)O[C@@H]6CO)O[C@H](CO)[C@H](O[C@H]6O[C@H](CO)[C@H](O)[C@H](O)[C@H]6O)[C@@H]5O)c(=O)c4=O)[C@H](OC)O[C@H](CO)[C@H]3OCCCSCC(=O)NCCNc3c(NCCCCCCCCNC(=O)OC(CNC(=O)OCCO[C@H]4[C@H](O[C@H]5[C@H](O)[C@@H](O)[C@H](OC)O[C@@H]5CO)O[C@H](CO)[C@H](O[C@H]5O[C@H](CO)[C@H](O)[C@H](O)[C@H]5O)[C@@H]4O)CNC(=O)OCCO[C@H]4[C@H](O[C@H]5[C@H](O)[C@@H](O)[C@H](OC)O[C@@H]5CO)O[C@H](CO)[C@H](O[C@H]5O[C@H](CO)[C@H](O)[C@H](O)[C@H]5O)[C@@H]4O)c(=O)c3=O)c(=O)c2=O)[C@H](O)[C@H]1O", "note": "[Compound 24]", "values": [{"measurement": "IC50", "setting": "[1]; read-out: IC50", "value": 0.048, "unit": "µM"}, {"measurement": "IC50", "setting": "[3]", "value": 0.47, "unit": "µM"}, {"measurement": "IC50", "setting": "[4]", "value": 0.029, "unit": "µM"}]}, {"smiles": "CO[C@@H]1O[C@H](CO)[C@@H](O[C@@H]2O[C@H](CO)[C@H](O[C@H]3O[C@H](CO)[C@H](O)[C@H](O)[C@H]3O)[C@H](O)[C@H]2O)[C@H](O)[C@H]1O", "note": "[P^k -trisaccharide methyl glycoside, reference compound]", "values": [{"measurement": "IC50", "setting": "[1]; IC50", "value": 2100, "unit": "µM"}, {"measurement": "IC50", "setting": "[1]; read-out: IC50", "value": 2000, "unit": "µM"}, {"measurement": "Kd", "setting": "[5]", "value": "~1000", "unit": "µM"}]}]}
